{"source": "paper PMC6691788", "about": "“Design and synthesis of phthalazine-based compounds as potent anticancer agents with potential antiangiogenic activity via VEGFR-2 inhibition” (Journal of Enzyme Inhibition and Medicinal Chemistry, 2019)", "key": {"[1]": {"system": "HS 578T", "experiment": "NCI 60 cell panel SRB screen", "assay_type": "cell-based", "conditions": "Homo sapiens, Hs-578T, read-out: percent cell growth promotion"}, "[2]": {"system": "CAKI-1", "experiment": "NCI 60 cell panel SRB screen", "assay_type": "cell-based, human", "conditions": "Homo sapiens; CAKI-1, single dose 10 μM; read-out: percent cell growth promotion"}, "[3]": {"system": "MDA-MB 231/ATCC", "experiment": "NCI 60 cell panel SRB screen", "assay_type": "cell-based", "conditions": "Homo sapiens, MDA-MB-231, read-out: percent cell growth promotion"}, "[4]": {"system": "MALME-3M", "experiment": "NCI 60 cell panel SRB screen", "assay_type": "cell-based", "conditions": "Homo sapiens, Malme-3M, read-out: percent cell growth promotion"}, "[5]": {"system": "OVCAR-4", "experiment": "NCI 60 cell panel SRB screen", "assay_type": "cell-based", "conditions": "Homo sapiens; OVCAR-4, single dose 10 μM; read-out: percent cell growth promotion"}, "[6]": {"system": "NCI-H522", "experiment": "NCI 60 cell panel SRB screen", "assay_type": "cell-based", "conditions": "Homo sapiens; NCI-H522, single dose 10 μM; read-out: percent cell growth promotion"}, "[7]": {"system": "HOP-92", "experiment": "NCI 60 cell panel SRB screen", "assay_type": "cell-based", "conditions": "Homo sapiens; HOP-92, single dose 10 μM; read-out: percent cell growth promotion"}, "[8]": {"system": "full NCI 60 cell panel", "experiment": "NCI 60 cell panel SRB screen, whole panel", "assay_type": "cell-based, human", "conditions": "for activity at 10 µM: Homo sapiens, 60 cell, mean over the panel, single dose 10 μM, read-out: Mean percent cell growth promotion; for cell growth inhibition, in words: single dose 10 µM", "from_the_text": "Aiming to evaluate the general antitumour activity of the synthesised phthalazines, the structures of the final compounds were submitted to National Cancer Institute “NCI” (www.dtp.nci.nih.gov), Bethesda, Maryland, USA. In vitro NCI anticancer screening involves two-stage process, the first stage started with the evaluation of the selected candidates against the full NCI 60 cell lines panel representing leukaemia, non-small cell lung cancer, melanoma, colon, CNS, breast, ovarian, renal and prostate cancers at a single dose of 10 µM. NCI selection is based on degree of structure variation and application of computer modelling techniques to prioritise compounds based on their ability to add diversity to the NCI small molecule compound collection.\nEight compounds (6b, 6e, 7b, 13a, 13c, 16a, 16d and 17a) were selected by NCI for further 5 log dose screening against full NCI 60 cell panel. All the 60 cell lines, representing nine tumour subpanels (leukaemia, non-small cell lung cancer, colon cancer, CNS cancer, prostate cancer, melanoma, ovarian cancer, renal cancer and breast cancer) which were incubated at five different concentrations (0.01, 0.1, 1, 10 and 100 µM) of each of the test compounds. The outcomes were used to create log concentration vs % growth inhibition curves, then three response parameters (GI50, TGI and LC50) were calculated for each cell line, (Tables S4 and S5 in Supplementary material).\nThe human tumor cell lines of the cancer-screening panel were grown in RPMI 1640 medium containing 5% fetal bovine serum and […] L-glutamine. For a typical screening experiment, cells are inoculated into 96 well microtiter plates in 100 ml at plating densities ranging from 5000 to 40,000 cells/well depending on the doubling time of individual cell lines. After cell inoculation, the microtiter plates are incubated at 37 °C, 5% CO2, 95% air and 100%\nrelative humidity for 24 h prior to addition of experimental drugs. After 24 h, two plates of each cell line are fixed in situ with TCA, to represent a measurement of the cell population for each cell line at the time of drug addition (Tz). Experimental drugs are dissolved in dimethyl sulfoxide at 400-fold the desired final maximum test concentration and stored frozen prior to use. At the time of drug addition, an aliquot of frozen concentrate is thawed and diluted to twice the desired final maximum test concentration with complete medium containing […] Gentamicin. Additional four, 10-fold or ½log serial dilutions are made to provide a total of five drug concentrations plus control. Aliquots of […] of these different drug dilutions are added to the appropriate microtiter wells already containing 100 ml of medium, resulting in the required final drug concentrations. Following drug addition, the plates are incubated for an additional 48 h at 37 °C, 5% CO2, 95% air, and 100% relative humidity. For adherent cells, the assay is terminated by the addition of cold TCA. Cells are fixed in situ by the gentle addition of […] of cold 50% (w/v) TCA (final concentration,10% TCA) and incubated for 60 min at 4 °C. The supernatant is discarded, and the plates are washed five times with tap water and air dried. Sulforhodamine B (SRB) solution (100 ml) at 0.4% (w/v) in 1% acetic acid is added to each well, and plates are incubated for 10 min at room temperature. After staining, unbound dye is removed by washing five times with 1% acetic acid and the plates are air dried. Bound stain is subsequently dissolved with 10 μM trizma base, and the absorbance is read on an automated plate reader at a wavelength of 515 nm. For suspension cells, the methodology is the same except that the assay is terminated by fixing settled cells at the bottom of the wells by gently adding […] of 80% TCA (final concentration, 16% TCA). […]"}, "[9]": {"system": "SW-620", "experiment": "NCI 60 cell panel SRB screen", "assay_type": "cell-based", "conditions": "Homo sapiens; SW-620, single dose 10 μM; read-out: percent cell growth promotion"}, "[10]": {"system": "SN12C", "experiment": "NCI 60 cell panel SRB screen", "assay_type": "cell-based", "conditions": "Homo sapiens, single dose 10 μM, read-out: percent cell growth promotion"}, "[11]": {"system": "DU-145", "experiment": "NCI 60 cell panel SRB screen", "assay_type": "cell-based", "conditions": "Homo sapiens; DU-145, single dose 10 μM; read-out: percent cell growth promotion"}, "[12]": {"system": "MDA-MB-435", "experiment": "NCI 60 cell panel SRB screen", "assay_type": "cell-based", "conditions": "Homo sapiens, MDA-MB-435, read-out: percent cell growth promotion"}}, "data": [{"smiles": "c1ccc(N2CCN(c3nncc4ccccc34)CC2)nc1", "note": "[Compound 8d, 1–(4-(Pyridin-2-yl)piperazin-1-yl)phthalazine]", "values": [{"measurement": "activity at 10 µM", "setting": "[1]", "result": 109, "unit": "%"}, {"measurement": "activity at 10 µM", "setting": "[2]", "result": 109, "unit": "%"}, {"measurement": "activity at 10 µM", "setting": "[3]", "result": 108, "unit": "%"}, {"measurement": "activity at 10 µM", "setting": "[4]", "result": 109, "unit": "%"}, {"measurement": "activity at 10 µM", "setting": "[5]", "result": 109, "unit": "%"}, {"measurement": "activity at 10 µM", "setting": "[6]", "result": 99.4, "unit": "%"}, {"measurement": "activity at 10 µM", "setting": "[7]", "result": 102, "unit": "%"}, {"measurement": "activity at 10 µM", "setting": "[8]", "result": 104, "unit": "%"}, {"measurement": "cell growth inhibition, in words", "setting": "[8]", "result": "nor the piperazines (8a, 8d, 8f, 8g, 8h and 8i) showed any significant cell line growth inhibition"}, {"measurement": "activity at 10 µM", "setting": "[9]", "result": 104, "unit": "%"}, {"measurement": "activity at 10 µM", "setting": "[10]", "result": 102, "unit": "%"}, {"measurement": "activity at 10 µM", "setting": "[11]", "result": 99, "unit": "%"}, {"measurement": "activity at 10 µM", "setting": "[12]", "result": 104, "unit": "%"}]}, {"smiles": "CCOC(=O)N1CCN(c2nnc(C)c3ccccc23)CC1", "note": "[Compound 8f, Ethyl 4–(4-methylphthalazin-1-yl)piperazine-1-carboxylate]", "values": [{"measurement": "activity at 10 µM", "setting": "[1]", "result": 106, "unit": "%"}, {"measurement": "activity at 10 µM", "setting": "[2]", "result": 90.3, "unit": "%"}, {"measurement": "activity at 10 µM", "setting": "[3]", "result": 114, "unit": "%"}, {"measurement": "activity at 10 µM", "setting": "[4]", "result": 102, "unit": "%"}, {"measurement": "activity at 10 µM", "setting": "[5]", "result": 97.8, "unit": "%"}, {"measurement": "activity at 10 µM", "setting": "[6]", "result": 93.8, "unit": "%"}, {"measurement": "activity at 10 µM", "setting": "[7]", "result": 112, "unit": "%"}, {"measurement": "activity at 10 µM", "setting": "[8]", "result": 101, "unit": "%"}, {"measurement": "cell growth inhibition, in words", "setting": "[8]", "result": "nor the piperazines (8a, 8d, 8f, 8g, 8h and 8i) showed any significant cell line growth inhibition"}, {"measurement": "activity at 10 µM", "setting": "[9]", "result": 104, "unit": "%"}, {"measurement": "activity at 10 µM", "setting": "[10]", "result": 101, "unit": "%"}, {"measurement": "activity at 10 µM", "setting": "[11]", "result": 100, "unit": "%"}, {"measurement": "activity at 10 µM", "setting": "[12]", "result": 97.4, "unit": "%"}]}, {"smiles": "Cc1nnc(N2CCN(c3ccccc3)CC2)c2ccccc12", "note": "[Compound 8g, 1-Methyl-4–(4-phenylpiperazin-1-yl)phthalazine]", "values": [{"measurement": "activity at 10 µM", "setting": "[1]", "result": 105, "unit": "%"}, {"measurement": "activity at 10 µM", "setting": "[2]", "result": 95.3, "unit": "%"}, {"measurement": "activity at 10 µM", "setting": "[3]", "result": 127, "unit": "%"}, {"measurement": "activity at 10 µM", "setting": "[4]", "result": 114, "unit": "%"}, {"measurement": "activity at 10 µM", "setting": "[5]", "result": 104, "unit": "%"}, {"measurement": "activity at 10 µM", "setting": "[6]", "result": 94.5, "unit": "%"}, {"measurement": "activity at 10 µM", "setting": "[7]", "result": 95.9, "unit": "%"}, {"measurement": "activity at 10 µM", "setting": "[8]", "result": 102, "unit": "%"}, {"measurement": "cell growth inhibition, in words", "setting": "[8]", "result": "nor the piperazines (8a, 8d, 8f, 8g, 8h and 8i) showed any significant cell line growth inhibition"}, {"measurement": "activity at 10 µM", "setting": "[9]", "result": 107, "unit": "%"}, {"measurement": "activity at 10 µM", "setting": "[10]", "result": 100, "unit": "%"}, {"measurement": "activity at 10 µM", "setting": "[11]", "result": 111, "unit": "%"}, {"measurement": "activity at 10 µM", "setting": "[12]", "result": 99.5, "unit": "%"}]}, {"smiles": "Cc1nnc(N2CCN(c3ccccc3F)CC2)c2ccccc12", "note": "[Compound 8h, 1–(4-(2-Fluorophenyl)piperazin-1-yl)-4-methylphthalazine]", "values": [{"measurement": "activity at 10 µM", "setting": "[1]", "result": 110, "unit": "%"}, {"measurement": "activity at 10 µM", "setting": "[2]", "result": 86.8, "unit": "%"}, {"measurement": "activity at 10 µM", "setting": "[3]", "result": 121, "unit": "%"}, {"measurement": "activity at 10 µM", "setting": "[4]", "result": 103, "unit": "%"}, {"measurement": "activity at 10 µM", "setting": "[5]", "result": 91.8, "unit": "%"}, {"measurement": "activity at 10 µM", "setting": "[6]", "result": 89, "unit": "%"}, {"measurement": "activity at 10 µM", "setting": "[7]", "result": 112, "unit": "%"}, {"measurement": "activity at 10 µM", "setting": "[8]", "result": 99, "unit": "%"}, {"measurement": "cell growth inhibition, in words", "setting": "[8]", "result": "nor the piperazines (8a, 8d, 8f, 8g, 8h and 8i) showed any significant cell line growth inhibition"}, {"measurement": "activity at 10 µM", "setting": "[9]", "result": 106, "unit": "%"}, {"measurement": "activity at 10 µM", "setting": "[10]", "result": 100, "unit": "%"}, {"measurement": "activity at 10 µM", "setting": "[11]", "result": 107, "unit": "%"}, {"measurement": "activity at 10 µM", "setting": "[12]", "result": 93.5, "unit": "%"}]}]}
